From patent US20060269924A1, “Modulation of telomere-initiated cell signaling” (TRUSTEES OF BOSTON UNIVERSITY, priority 2003, published 2006)
{P} = phosphate

Experiments:
[1] = test system: Jurkat cells; experiment: FACS analysis of propidium iodide stained Jurkat cells (cell cycle, sub-G0/G1 apoptosis); assay type: cell-based, human
Procedure: FIGS. 1A-1H show FACS analysis of propidium iodide stained Jurkat cells (immortalized T lymphocytes), treated with diluent (FIGS. 1A and 1E); 40 μM 11mer-1 pGTTAGGGTTAG (SEQ ID NO: 2) (FIGS. 1B and 1F); 40 μM 11mer-2 pCTAACCCTAAC (SEQ ID NO: 3) (FIGS. 1C and […]); 40 μM 11mer-3 pGATCGATCGAT (SEQ ID NO: 4) (FIGS. 1D and 1H). Jurkat cells were treated with the stated reagents for 48 hours before analysis (FIGS. 1A-1D) or 72 hours (FIGS. 1E-1H).
FIGS. 2A-2F are profiles showing the results of fluorescence activated cell sorting, for the following additions to the cells: FIG. 2A, diluent; FIG. 2B, 0.4 μM 11mer-1; FIG. 2C, 0.4 μM 11mer-1-S; FIG. 2D, diluent; FIG. 2E, 40 μM 11mer-1; FIG. 2F, 40 μM 11 mer-1-S.
Oligonucleotides homologous to the telomere overhang repeat sequence (TTAGGG; SEQ ID NO: 1), sequence (11mer-1: pGTTAGGGTTAG; SEQ ID NO: 2), complementary to this sequence (11mer-2: pCTAACCCTAAC; SEQ ID NO: 3) and unrelated to the telomere sequence (11mer-3: pGATCGATCGAT; SEQ ID NO: 4) were added to cultures of Jurkat cells, a line of human T cells reported to undergo apoptosis in response to telomere disruption. Within′ 48 hours, 50% of the cells treated with 40 μM of SEQ ID NO: 5 had accumulated in the S phase, compared to 25-30% for control cells (p<0.0003, non-paired t-test; see FIGS. 1A-1D), and by 72 hours, 13% of these cells were apoptotic as determined by a sub-G0/G1 DNA content, compared to 2-3% of controls (p<0.007, non-paired t-test; see FIGS. 1E-1H). At 96 hours, 20±3% of the 11mer-1 treated cells were apoptotic compared with 3-5% of controls (p<0.0001, non-paired t-test). To exclude preferential uptake of the 11mer-1 as an explanation of its singular effects, Jurkat cells were treated with oligonucleotides labeled on the 3′ end with fluorescein phosphoramidite, then subjected to confocal-microscopy and FACS analysis. The fluorescence intensity of the cells was the same after all treatments at 4 hours and 24 hours.
Cultures of Jurkat human T cells were treated with either diluent, 11mer-1 ([…]) or the phosphorothioate 11mer-1 (11mer-1-S) for 96 hours, then collected and processed for FACS analysis. Two concentrations of the oligonucleotides were tested, 0.4 μM (FIGS. 2A-2C) and 40 μM (FIGS. 2D-2F).

[2] = test system: HT-1080 fibrosarcoma cells; experiment: Telomere length (mean TRF length) assay; assay type: cell-based, human; details: HT-1080 cells, 40 μM, 4 days
Procedure: Cells were treated as described in FIG. 13a. Lanes 1, 2, 3 contain genomic DNA from cells treated with diluent (D), T-oligo (T), or complementary oligo (C). Lanes 4 and 5 contain high (H) molecular and low (L) molecular weight standard telomeric DNA.
HT-1080 fibrosarcoma cells were treated with diluent, 40 μM T-oligo or 40 μM complementary oligo for 4 days and then the genomic DNA was isolated using the DNeasy Tissue Kit (Qiagen, Valencia, Calif.). Telomere length was determined using the Telo TTAGGG Telomere Length Assay (Roche Molecular Biochemicals, Indianapolis, Ind.) following the protocol supplied by the manufacturer. […] Terminal restriction fragments (TRF) were detected by chemiluminescence. The mean TRF length was calculated by scanning the exposed X-ray film with a densitometer and calculated as previously described (Harley et al. [1990] Telomeres shorten during ageing of human fibroblasts. Nature 345, 458-460).
To determine the affect of T-oligos on the mean telomere length (MTL) in HT-1080 cells, cells were analyzed after treatment with T-oligo for 4 days which corresponded to the time that the senescent phenotype was readily observed. […] The less than 100 bp difference in calculated MTL is within the range of experimental variation and is not significant.

[3] = test system: p95/Nbs1 phosphorylation; experiment: Western blot for phospho-p95/Nbs1 in Saos-2 cells; assay type: cell-based; details: 40 μM
Procedure: FIG. 18a: FACS profiles from one representative experiment of three with the percentage and standard deviations of cells in each phase of the cell cycle was calculated from triplicate cultures of each condition. FIG. 18b: Western blots with an antibody specific for phospho-p95/Nbs1. Lanes 1, 2 and 3 contained protein from cells treated with diluent, 11mer-1 or 11mer-2, respectively. Control cells (3 hours) were irradiated with 10 Gy of IR (+), or were sham irradiated (−).
Saos-2 cells are an osteosarcoma cell line that is reportedly telomerase negative and maintain telomeres by the ALT pathway. Saos-2 cell lines were treated with either diluent or 40 μM of the indicated oligonucleotide and cells were collected after 48 hours for FACS analysis. […] The results that the effect of the T-oligo in the telomerase negative cells is identical to the response in telomerase positive malignant cell lines.

[4] = test system: phospho-p53 serine 15, phospho-p95 serine 343; experiment: T-oligo response in fibroblasts with Mre11 siRNA knockdown, Western blot and densitometry; assay type: cell-based, human; details: fibroblasts with significantly reduced MRE11 levels (Mre11 siRNA), 48 hours
Procedure: Normal human neonatal fibroblasts were treated with either 10 pmoles Mre11 siRNA or 10 pmoles control (no homology found in expressed human sequences). Cultures dishes were approximately 60% confluent on the day of siRNA transfection. Transfections were carried out using Lipofectamine 2000 (Invitrogen, Carlsbad, Calif.) following the protocol supplied by the manufacturer. The transfection cocktail was applied to the cells for 5 hours and then replaced with fresh medium alone. The next day, the transfection protocol was repeated. The following day, duplicate cultures were treated with the T-oligo or with diluent alone as a negative control. Cells were then collected 48 hours later and the protein analyzed by Western blot using antibodies specific for phospho-p95 serine 343 (Cell Signaling Technology, Beverly, Mass.), Mre11 (GeneTex, San Antonio, Tex.), phosphor-p53 serine 15 (Cell Signaling Technology) and total p53 (Oncogene, San Diego, Calif.) (FIG. 9). Hela cell lysate was used as a positive control for Mre11. Normal fibroblasts exposed to 10 Gy IR or sham irradiated and collected after one hour served as positive controls for p53 and p95/Nbs1 phosphorylation. The autoradiographs were analyzed by densitometry and the values for the T-oligo samples are expressed relative to the values for the diluent-treated samples (FIG. 10 and FIG. 11).

pGTTAGGGTTAG (DNA, 5' {P}, backbone not given here; listed as Homo sapiens) [Oligonucleotide 11mer-1]
effect on exponentially growing cell cycle profile ([1]; 0.4 μM, 96 hours): neither of the oligonucleotides affected | cells accumulated in the S phase ([1]; 40 μM, 48 hours): 50% | apoptotic cells (sub-G0/G1 DNA content) ([1]; 40 μM, 72 hours): 13% | apoptosis (sub-G0/G1 peak) ([1]; 40 μM, 96 hours): induced extensive apoptosis | apoptotic cells ([1]; 96 hours): 20±3% | mean telomere length (MTL) [2]: 5.56 kb | phosphorylation of p95/Nbs1 [3]: induced phosphorylation | phospho-p53 response to T-oligo [4]: reduced | phospho-p95/Nbs1 response to T-oligo [4]: absent
